Structures can show the parent of a compound that is named as a salt. Where two headings read alike, the source gives them in different places.
Columns and labels:
[1] = molecular target: T1, 5-HT2A (Homo sapiens, UniProt P28223); assay: 5-HT2 Gq-Dissociation BRET assay; type: cell-based; parameters: expressed in transfected cells; host or cells: HEK293T; conditions: for IC50: HEK293T cells, 1 hour at 37° C.; for Emax: read-out: % efficacy vs 5-HT@ 100%, 5-HT2A
[2] = molecular target: T2, 5-HT2C (Homo sapiens, UniProt P28335); assay: cell-based; parameters: expressed in transfected cells; host or cells: HEK293T; conditions: for Emax: read-out: % efficacy vs 5-HT@ 100%, 5-HT2C
T2 sequence (P28335 33-458): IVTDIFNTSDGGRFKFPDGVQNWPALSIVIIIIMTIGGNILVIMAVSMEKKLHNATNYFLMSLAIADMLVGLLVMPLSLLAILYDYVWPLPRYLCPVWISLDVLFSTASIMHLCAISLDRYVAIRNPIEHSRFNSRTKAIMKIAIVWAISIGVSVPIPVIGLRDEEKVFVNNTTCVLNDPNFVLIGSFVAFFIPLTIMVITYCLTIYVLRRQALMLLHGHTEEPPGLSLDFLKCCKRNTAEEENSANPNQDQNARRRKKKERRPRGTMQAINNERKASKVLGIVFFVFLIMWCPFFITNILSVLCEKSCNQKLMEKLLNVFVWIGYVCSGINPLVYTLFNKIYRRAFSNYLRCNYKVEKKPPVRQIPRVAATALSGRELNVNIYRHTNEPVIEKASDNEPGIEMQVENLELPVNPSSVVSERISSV

[3] = molecular target: T3, 5-HT2B (Homo sapiens, UniProt P41595); assay: cell-based; type: cell-based; parameters: expressed in transfected cells; host or cells: HEK293T; conditions: for Emax: 1 h, read-out: % efficacy vs 5-HT@ 100%, 5-HT2B; for IC50: HEK293T cells, 1 hour at 37° C., read-out: IC50 nM 5-HT2 Gq Dissociation BRET assay, 5-HT2B
T3 sequence (P41595 whole entry): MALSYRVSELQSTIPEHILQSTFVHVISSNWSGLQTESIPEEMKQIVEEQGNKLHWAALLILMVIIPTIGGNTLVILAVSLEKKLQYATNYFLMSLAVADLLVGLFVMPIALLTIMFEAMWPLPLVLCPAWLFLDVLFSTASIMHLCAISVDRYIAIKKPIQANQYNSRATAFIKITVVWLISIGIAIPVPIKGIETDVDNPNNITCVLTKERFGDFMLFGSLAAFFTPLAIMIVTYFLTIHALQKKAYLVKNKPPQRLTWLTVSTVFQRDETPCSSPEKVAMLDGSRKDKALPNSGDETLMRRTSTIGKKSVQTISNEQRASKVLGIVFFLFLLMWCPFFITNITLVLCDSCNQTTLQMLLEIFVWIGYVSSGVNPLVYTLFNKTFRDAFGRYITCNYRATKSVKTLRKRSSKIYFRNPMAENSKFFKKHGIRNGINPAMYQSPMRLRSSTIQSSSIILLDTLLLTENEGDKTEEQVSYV

[4] = molecular target: T2, 5-HT2C; conditions: read-out: agonist potency at human 5-HT2C receptor; cited from earlier work
[5] = molecular target: T4, 5-HT3 (Homo sapiens, UniProt P46098); conditions: read-out: Ki 5-HT3; cited from earlier work
T4 sequence (P46098 24-478): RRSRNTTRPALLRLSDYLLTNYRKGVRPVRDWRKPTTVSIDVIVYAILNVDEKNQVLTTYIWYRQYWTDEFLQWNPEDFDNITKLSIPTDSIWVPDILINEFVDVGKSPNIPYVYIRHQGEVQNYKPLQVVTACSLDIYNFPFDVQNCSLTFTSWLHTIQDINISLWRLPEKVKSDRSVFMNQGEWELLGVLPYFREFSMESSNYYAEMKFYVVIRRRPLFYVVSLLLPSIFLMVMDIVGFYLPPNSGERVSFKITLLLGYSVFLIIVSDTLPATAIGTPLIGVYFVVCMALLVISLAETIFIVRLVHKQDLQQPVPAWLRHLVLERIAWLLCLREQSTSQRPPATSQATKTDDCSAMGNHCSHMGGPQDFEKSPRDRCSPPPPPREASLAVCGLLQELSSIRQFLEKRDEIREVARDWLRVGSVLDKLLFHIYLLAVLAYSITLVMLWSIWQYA

[6] = molecular target: T1, 5-HT2A; conditions: relative to serotonin at 100%; cited from earlier work
[7] = test system: dopamine receptors; conditions: cited from earlier work
[8] = molecular target: T3, 5-HT2B; conditions: relative to serotonin at 100%; cited from earlier work
[9] = test system: patients; conditions: cited from earlier work
[10] = HEK293T cells, 1 hour at 37° C., read-out: IC50 nM 5-HT2 Gq Dissociation BRET assay, 5-HT2C

T1 sequence (P28223 whole entry): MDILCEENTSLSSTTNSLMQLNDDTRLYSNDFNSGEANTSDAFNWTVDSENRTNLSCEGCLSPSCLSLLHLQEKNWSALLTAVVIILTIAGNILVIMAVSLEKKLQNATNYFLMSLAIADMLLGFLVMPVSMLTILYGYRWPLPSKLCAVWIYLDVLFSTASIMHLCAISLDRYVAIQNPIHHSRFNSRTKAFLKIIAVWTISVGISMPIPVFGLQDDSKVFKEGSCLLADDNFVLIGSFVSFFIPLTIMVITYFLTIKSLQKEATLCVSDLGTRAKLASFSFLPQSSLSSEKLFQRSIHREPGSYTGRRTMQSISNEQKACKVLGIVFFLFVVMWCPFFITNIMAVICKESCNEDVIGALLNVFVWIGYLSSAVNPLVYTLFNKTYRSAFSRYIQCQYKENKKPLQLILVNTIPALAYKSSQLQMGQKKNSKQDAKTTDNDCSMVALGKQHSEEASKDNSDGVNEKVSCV

CN(C)CCc1cn(C)c2cccc(O)c12 [Example 1, 3-(2-(dimethylamino)ethyl)-1-methyl-1H-indol-4-ol, reference compound]
EC50 ([1]; found by the inventors, read-out: potency at 5-HT2A receptors): ~86 nM | EC50 ([2]; found by the inventors, read-out: functional potency at human 5-HT2C receptors): ~10 nM

CN(C)CCc1cn(CC(F)F)c2cccc(O)c12 [Example 3, 1-(2,2-difluoroethyl)-3-(2-(dimethylamino)ethyl)-1H-indol-4-ol]
IC50 [1]: 188 nM | Emax [1]: 48% | 5-HT2 Gq Dissociation BRET assay, 5-HT2B, activity class ([3]; Not Active): Not Active | IC50 [2, 10]: 2.7 nM | Emax [2]: 80%

CCCCn1cc(CCN(C)C)c2c(O)cccc21 [Example 6, 1-butyl-3-(2-(dimethylamino)ethyl)-1H-indol-4-ol, reference compound]
EC50 [4]: ~600 nM | IC50 [1]: 1800 nM | Emax [1]: 18% | 5-HT2 Gq Dissociation BRET assay, 5-HT2B, activity class [3]: Not Active | IC50 [2]: 1.61 nM | Emax [2]: 48%

CN(C)CCc1cn(C)c2cccc(O)c12 [Example 1, 3-(2-(dimethylamino)ethyl)-1-methyl-1H-indol-4-ol]
Emax [1]: 73% | Emax [3]: 40% | Emax [2]: 92%

CN(C)CCc1c[nH]c2cccc(O)c12 [Psilocin, psilocin]
Ki [5]: > 10000 nM | Efficacy (in parentheses), 5-HT2A [6]: 43% | effect on dopamine receptors [7]: no significant effect on dopamine receptors | Efficacy (in parentheses), 5-HT2B [8]: 45% | % efficacy vs 5-HT@ 100%, 5-HT2B [3]: 1.07 nM (63%)

CCCn1cc(CCN(C)C)c2c(O)cccc21 [Example 4, 3-(2-(dimethylamino)ethyl)-1-propyl-1H-indol-4-ol]
IC50 [1]: 1150 nM | Emax [1]: 37% | 5-HT2 Gq Dissociation BRET assay, 5-HT2B, activity class ([3]; Not Active): Not Active | IC50 [2, 10]: 3 nM | Emax [2]: 67%

CCN(CC)CCc1cn(C)c2cccc(O)c12 [Example 18, 3-(2-(diethylamino)ethyl)-1-methyl-1H-indol-4-ol hydrochloride]
IC50 [1]: 241 nM | Emax [1]: 60% | Emax [3]: 56% | IC50 [3]: 64 nM | IC50 [2, 10]: 31 nM | Emax [2]: 70%

CC(C)N(C)CCc1cn(C)c2cccc(O)c12 [Example 13, 3-(2-(isopropyl(methyl)amino)ethyl)-1-methyl-1H-indol-4-ol hydrochloride]
IC50 [1]: 112 nM | Emax [1]: 85% | Emax [3]: 83% | IC50 [3]: 42.1 nM | IC50 [2, 10]: 63.5 nM | Emax [2]: 105%

CCN(C)CCc1cn(C)c2cccc(O)c12 [Example 12, 3-(2-(ethyl(methyl)amino)ethyl)-1-methyl-1H-indol-4-ol hydrochloride]
IC50 [1]: 133 nM | Emax [1]: 66% | Emax [3]: 44% | IC50 [3]: 83 nM | IC50 [2, 10]: 2.8 nM | Emax [2]: 84%

Cn1cc(CCNCC(F)F)c2c(O)cccc21 [Example 22, 3-(2-((2,2-difluoroethyl)amino)ethyl)-1-methyl-1H-indol-4-ol hydrochloride]
IC50 [1]: 4200 nM | Emax [1]: 78% | Emax [3]: 75% | IC50 [3]: 1420 nM | IC50 [2, 10]: 1890 nM | Emax [2]: 82%

COc1ccccc1CNCCc1cn(C)c2cccc(O)c12 [Example 24, 3-(2-((2-methoxybenzyl)amino)ethyl)-1-methyl-1H-indol-4-ol hydrochloride]
IC50 [1]: 10 nM | Emax [1]: 93% | Emax [3]: 56% | IC50 [3]: 8.3 nM | IC50 [2, 10]: 1.6 nM | Emax [2]: 115%

CN(C)CCc1cn(C2CCC2)c2cccc(O)c12 [Example 9, 1-cyclobutyl-3-(2-(dimethylamino)ethyl)-1H-indol-4-ol]
IC50 [1]: 4050 nM | Emax [1]: 53% | 5-HT2 Gq Dissociation BRET assay, 5-HT2B, activity class ([3]; Not Active): Not Active | IC50 [2, 10]: 3 nM | Emax [2]: 44%

C[C@H]1CNCCc2ccc(Cl)cc21 [Locaserin]
risk of cardiac valvulopathy [9]: no increased risk of cardiac valvulopathy

CN(C)CCc1cn(C2COC2)c2cccc(O)c12 [Example 10, 3-(2-(dimethylamino)ethyl)-1-(oxetan-3-yl)-1H-indol-4-ol]
IC50 [1]: 4000 nM | Emax [1]: 50% | 5-HT2 Gq Dissociation BRET assay, 5-HT2B, activity class ([3]; Not Active): Not Active | IC50 [2, 10]: 1070 nM | Emax [2]: 60%

CN(CCc1cn(C)c2cccc(O)c12)CC1CC1 [Example 16, 3-(2-((cyclopropylmethyl)(methyl)amino)ethyl)-1-methyl-1H-indol-4-ol hydrochloride]
IC50 [1]: 140 nM | Emax [1]: 55% | Emax [3]: 19% | IC50 [3]: 0.245 nM | IC50 [2, 10]: 14.9 nM | Emax [2]: 54%

CN(C)CCc1cn(CC2CC2)c2cccc(O)c12 [Example 8, 1-(cyclopropylmethyl)-3-(2-(dimethylamino)ethyl)-1H-indol-4-ol]
IC50 [1]: 28 nM | Emax [1]: 29% | 5-HT2 Gq Dissociation BRET assay, 5-HT2B, activity class ([3]; Not Active): Not Active | IC50 [2, 10]: 0.12 nM | Emax [2]: 50%

CN(CCc1cn(C)c2cccc(O)c12)CC(F)F [Example 17, 3-(2-((2,2-difluoroethyl)(methyl)amino)ethyl)-1-methyl-1H-indol-4-ol hydrochloride]
IC50 [1]: 8400 nM | Emax [1]: 54% | Emax [3]: 24% | IC50 [3]: 376 nM | IC50 [2, 10]: 833 nM | Emax [2]: 66%

COc1ccccc1CN(C)CCc1cn(C)c2cccc(O)c12 [Example 25, 3-(2-((2-methoxybenzyl)(methyl)amino)ethyl)-1-methyl-1H-indol-4-ol hydrochloride]
IC50 [1]: 770 nM | Emax [1]: 39% | Emax [3]: 14% | IC50 [3]: 4000 nM | IC50 [2, 10]: 2.4 nM | Emax [2]: 70%

CC(C)N(CCc1cn(C)c2cccc(O)c12)C(C)C [Example 14, 3-(2-(diisopropylamino)ethyl)-1-methyl-1H-indol-4-ol hydrochloride]
IC50 [1]: 253 nM | Emax [1]: 92% | Emax [3]: 68% | IC50 [3]: 49.1 nM | IC50 [2, 10]: 393 nM | Emax [2]: 98%

Cn1cc(CCNCC2CC2)c2c(O)cccc21 [Example 21, 3-(2-((cyclopropylmethyl)amino)ethyl)-1-methyl-1H-indol-4-ol hydrochloride]
IC50 [1]: 497 nM | Emax [1]: 61% | Emax [3]: 46% | IC50 [3]: 328 nM | IC50 [2, 10]: 15 nM | Emax [2]: 40%

Reference: patent US20230140635A1, “3-(2-(Aminoethyl)-Indol-4-ol Derivatives, Methods of Preparation Thereof, and the Use as 5-HT2 Receptor Modulators” (priority 2020, published 2023)
